From US20080070909A1, “ENANTIOMERICALLY PURE BETA AGONISTS, MANUFACTURING AND USE THEREOF” (priority 2006, published 2008)

- melting point: 168 °C
Structure (SMILES): CCC1(CC)OC(=O)N(CCC(C)(C)NCC(O)c2ccc(O)c(NS(C)(=O)=O)c2)c2ccccc21 (stereo not shown) [Example 10, N-(5-{2-[3-(4,4-diethyl-2-oxo-4H-benzo[d][1,3]oxazin-1-yl)-1,1-dimethyl-propylamino]-1-hydroxy-ethyl}-2-hydroxy-phenyl)-methanesulphonamide]
